The source of these data is ChEMBL document CHEMBL1134260, “Adamantylaminopyrimidines and -pyridines are potent inducers of tumor necrosis factor-alpha” (2001).

Test [1] in a line: TNF-alpha stimulatory activity in B78/TNF/9 melanoma cells evaluated by ELISA method. Format: functional, Mus musculus. Details: concentration or dose not given beside the values.
A short description of test [2]: Tested for the ability to stimulate TNF-alpha production in B78-H1 murine melanoma cells transduced with gene for human TNF-alpha, clone-9 at 10 uM concentration. Format: functional, Mus musculus.
The species entered for test [3] is Mus musculus. Put plainly: Tested for the ability to stimulate TNF-alpha production in B78-H1 murine melanoma cells transduced with gene for human TNF-alpha, clone-9 at 10 nM concentration; In active. Type of test: functional.
The species named for test [4] is Mus musculus. The test is described as follows: Tested for the ability to stimulate TNF-alpha production in B78-H1 murine melanoma cells transduced with gene for human TNF-alpha, clone-9 at 10 uM concentration; In active. Format: functional.

Calls of active or inactive are those of the source. The rule behind the calls is not given here.

Consider `Cc1cccc(NC23CC4CC(CC(C4)C2)C3)n1`, for which, in test [1], the “TNF-alpha production (% of control)” value is ~260%. Also, the Enhancement in test [2] is given as 10%.

On to `c1cc(NC23CC4CC(CC(C4)C2)C3)ccn1`, for which the “TNF-alpha production (% of control)” value in test [1] is ~130%.

As to `c1cnc(NC23CC4CC(CC(C4)C2)C3)nc1`, the “TNF-alpha production (% of control)” value in test [1] was ~200%.

`Cc1cc(N)nc(NC23CC4CC(CC(C4)C2)C3)n1`: the “TNF-alpha production (% of control)” value in test [1] is ~180%.

Turning to `Brc1cnc(NC23CC4CC(CC(C4)C2)C3)nc1`, the “TNF-alpha production (% of control)” value in test [1] was ~150%.

Consider `c1cncc(NC23CC4CC(CC(C4)C2)C3)c1`, for which the “TNF-alpha production (% of control)” value in test [1] was ~190%.

On to `Cc1cc(Cl)nc(NC23CC4CC(CC(C4)C2)C3)n1`, for which the “TNF-alpha production (% of control)” value in test [1] is ~220%.

`Brc1ccc(NC23CC4CC(CC(C4)C2)C3)nc1`: the “TNF-alpha production (% of control)” value in test [1] is ~140%.

As for `Cc1cc(C)nc(NC23CC4CC(CC(C4)C2)C3)n1`, the “TNF-alpha production (% of control)” value in test [1] was ~240%. Moreover, the Enhancement entry in the test filed under Mus musculus [3] is “inactive”.

Regarding `Clc1ccc(NC23CC4CC(CC(C4)C2)C3)cn1`, the “TNF-alpha production (% of control)” value in test [1] was ~100%.

As to `NC12CC3CC(CC(C3)C1)C2`, the Enhancement entry in the test listed under Mus musculus [4] is “inactive”.

As for `c1ccc(NC23CC4CC(CC(C4)C2)C3)nc1`, the “TNF-alpha production (% of control)” value in test [1] was ~170%. Besides, in the test listed under Mus musculus [4], the Enhancement entry was “inactive”.

As for `Cc1ccnc(NC23CC4CC(CC(C4)C2)C3)c1`, the “TNF-alpha production (% of control)” value in test [1] is on record as ~200%.

On to `Cc1cc(C)nc(NC23CC4CC(CC(C4)C2)C3)c1`, for which the “TNF-alpha production (% of control)” value in test [1] is on record as ~250%. For the same compound, the Enhancement result in the test listed under Mus musculus [4] was “inactive”.

On to `Cc1ccc(NC23CC4CC(CC(C4)C2)C3)nc1`, for which the “TNF-alpha production (% of control)” value in test [1] is listed as ~200%.
